Data taken from PMC6264499, “In silico identification and experimental validation of hits active against KPC-2 β-lactamase” (PLoS ONE, 2018).

Columns and labels:
recombinant KPC-2 [1] = target: T1, recombinant KPC-2 (Klebsiella pneumoniae, UniProt Q9F663); assay: KPC-2 inhibition assay, nitrocefin as reporter substrate; assay type: biochemical; settings: for IC50: nitrocefin 114.28 μM (Km 36 μM), 25°, 485 nm
T1 construct: made in house; host or cells: E. coli BL21 (DE3)
Procedure: (§1) The blaKPC-2 gene was kindly provided by Prof. Sergei Vakulenko (University of Notre Dame du Lac, Indiana, USA) and cloned as already reported and transformed into competent E.coli BL21 (DE3) cells for protein expression. 50 mL of Tryptic Soy Broth (TSB) (50 mg/L kanamycin) were inoculated with fresh colonies and grown at 37°C. 4 mL of the overnight culture was used to inoculate 1.3 L of TSB (50 mg/L kanamycin) grown at 37°C with shaking to an optical density of 0.5 measured at 600 nm. Then expression of recombinant bla gene was induced by adding 1.0 mM IPTG (isopropyl-D-thiogalactopyranoside) and the cells were again allowed to grow at 20°C overnight. Bacteria were harvested by centrifugation at 4000 rpm for 20 minutes. The pelleted cells were resuspended in Tris-HCl 50 mM pH 7.4–7.5. Periplasmatic proteins were extracted as reported in the pET System Manual (TB055 10th Edition Rev. B 0403) and subsequently dialyzed in sodium acetate buffer (50 mM, pH 5.0). The protein was conveniently purified in a single step using a Macro-Prep High S resin and eluted using sodium acetate 50 mM pH 5.0 and a sodium chloride (NaCl) linear gradient from 100 to 500 mM. The purified protein was dialyzed overnight in sodium phosphate buffer 50 mM, pH 7.0 [31, 32].
(§2) The hydrolytic activity of KPC-2 was measured using the β-lactam substrates CENTA (100 uM, KM 70 uM) or nitrocefin (114 uM, KM 36 μM) in reaction buffer consisting of 50 mM of PB at pH 7.0 at 25°C with 0.01% v/v Triton X-100 to avoid compound aggregation and promiscuous inhibition.[33] Reactions were monitored using a Beckmann DU640 spectrophotometer at […] for CENTA and 480 nm wavelength for nitrocefin [34]. The test compounds were synthesized as described below or purchased from Enamine, TimTec, Vitas-M, ChemBridge, Otava, Life Chemicals or Apollo Scientific and assayed without further purification. Compounds were dissolved in dimethyl sulfoxide (DMSO) to a concentration of 25 mM and stored at -20°C. The highest concentration at which the compounds were tested was up to 1 mM (depending on their solubility). All experiments were performed in duplicate and the error never exceeded 5%. The reaction was typically initiated by adding KPC-2 to the reaction buffer last. To control for incubation effects, protein was added to the reaction buffer first, and the reaction was initiated by the addition of reporter substrate after 10 minutes of enzyme-compound incubation.
Kinetic were monitored at 25° by following the absorbance variation at λ = 485 nm. ^[b] If no IC50 has been measured, percent inhibition at the highest tested concentration is given in parentheses. […] When % Inhibition was below 10% No Inhibition (NI) is reported. TEXT PRINTED IN THE PICTURE: 11a: IC50 mM [a,b]: 0.036 | 1b: IC50 mM [a,b]: > 0.2 (25) | 2b: IC50 mM [a,b]: >0.6 (23) | 3b: IC50 mM [a,b]: Not tested not soluble | 4b: IC50 mM [a,b]: > 0.2 (16) | 5b: IC50 mM [a,b]: > 0.2 (13) | 6b: IC50 mM [a,b]: NI at 0.2 | 7b: IC50 mM [a,b]: >1.0 (30) | 8b: IC50 mM [a,b]: > 1.0 (37) | 9b: IC50 mM [a,b]: NI at 0.5 | 10b: IC50 mM [a,b]: NI at 0.5 | 11b: IC50 mM [a,b]: > 1.0 (37) | 12b: IC50 mM [a,b]: NI at 0.5 | 13b: IC50 mM [a,b]: NI at 0.5 | 14b: IC50 mM [a,b]: >500 (20) DOUBTS OF THE COPYIST ABOUT THIS PICTURE: column head: raised note printed very small, read as [a,b]

recombinant KPC-2 [2] = target: T1, recombinant KPC-2; assay: KPC-2 inhibition assay, CENTA as reporter substrate; assay type: biochemical; settings: for fold less active than 9a: IC50 vs KPC-2 relative to compound 9a
Procedure: as §1, §2
Fig 4 Inhibitory activity of compounds selected from virtual screening. ^[a]Assays were performed in duplicate (errors were less than 5%) with CENTA as reporter substrate (100 μM, km 70 μM). Kinetic were monitored at 25° by following the absorbance variation at λ = 405 nm. ^[b] If no IC50 has been measured, percent inhibition at the highest tested concentration is given in parentheses. For example, > 0.50 (26%) implies that the highest concentration tested was 0.50 mM; at this concentration, the enzyme was inhibited by 26%. Therefore, IC50> 0.50 mM. When % Inhibition was below 10% No Inibition (NI) is reported. ^[c]Assays were run after 10’ incubation of the inhibitor with KPC-2. Reaction was started by the addition of CENTA. […] 0 (11) | 32a: IC50 mM ^[a,b]: 1.24
Competitive inhibition mechanism and the Ki for compound 9a was determined by Lineweaver–Burk (LB) and Dixon plots.

Kpn 53A8 = assay: MIC of meropenem, alone or 1:1 with compounds, KPC-2 clinical strain; assay type: cell-based, K. pneumoniae; settings: strain Kpn 53A8
Procedure: The antimicrobial activity of the best hits 9a and 11a and their derivatives was studied in bacterial cell cultures to investigate their ability to cross the outer membrane reaching the periplasmic space, where KPC-2 is secreted and confined in Gram negative bacteria. Compounds were tested for synergy with the β-lactam antibiotic meropenem against four K. pneumoniae clinical strains, isolated from different patients at the Hospital Universitario Son Espases, Palma de Mallorca, Spain. […] The three additional strains harbored the blaKPC-2 gene and were resistant to meropenem (Table 2). […] However, against strain Kpn 53A8 the MIC value was lowered by a factor of two when meropenem was combined with compounds 32a, 1b, 2b, 5b and 6b while in combination with compound 11a the MIC value was reduced by 4 fold.

[3] = read-out: percent inhibition at the highest tested concentration
[4] = CENTA 100 μM (km 70 μM), 25°, 405 nm, no pre-incubation, read-out: IC50
[5] = CENTA 100 μM, after 10' incubation of the inhibitor with KPC-2, read-out: IC50

T1 sequence (Q9F663 25-293, looked up): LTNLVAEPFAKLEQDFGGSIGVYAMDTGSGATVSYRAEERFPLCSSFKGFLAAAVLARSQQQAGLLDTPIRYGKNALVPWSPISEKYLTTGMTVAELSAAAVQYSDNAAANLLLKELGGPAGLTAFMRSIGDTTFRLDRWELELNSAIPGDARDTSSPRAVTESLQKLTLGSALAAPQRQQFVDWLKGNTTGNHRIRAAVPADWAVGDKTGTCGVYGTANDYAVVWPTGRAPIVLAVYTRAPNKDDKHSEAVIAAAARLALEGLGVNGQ

O=S(=O)(/C=C/c1cccc(Br)c1)Nc1cccc(-c2nnn[nH]2)c1 [7b]
IC50 (recombinant KPC-2 [1]): > 1000 µM
inhibition at 1000 µM (recombinant KPC-2 [1]; [3]): 30%

CCOc1ccc(NS(C)(=O)=O)cc1 [7a]
IC50 (recombinant KPC-2 [2]; [4]): > 1000 µM
inhibition at 1000 µM (recombinant KPC-2 [2]; [3]): 12%

CC(C)S(=O)(=O)Nc1ccc2c(c1)C(=O)N(C)CCO2 [15a]
IC50 (recombinant KPC-2 [2]; [4]): > 660 µM
inhibition at 660 µM (recombinant KPC-2 [2]; [3]): 38%

CC(=O)Nc1ccc(S(=O)(=O)Nc2cccc(-c3nnn[nH]3)c2)cc1 [4b, N-(4-(N-(3-(1H-tetrazol-5-yl)phenyl)sulfamoyl)phenyl)acetamide]
IC50 (recombinant KPC-2 [1]): > 200 µM
inhibition at 200 µM (recombinant KPC-2 [1]; [3]): 16%

COc1ccc2nc(C(=O)O)[nH]c2c1 [19a]
IC50 (recombinant KPC-2 [2]; [4]): 880 µM
fold less active than 9a (recombinant KPC-2 [2]): 6 fold

Cc1nn(CC(=O)O)c(C)c1NS(=O)(=O)CC(F)(F)F [29a]
IC50 (recombinant KPC-2 [2]; [4]): > 1000 µM
inhibition at 1000 µM (recombinant KPC-2 [2]; [3]): 15%

Cc1cc(C(=O)O)cc(S(=O)(=O)Nc2cccc(-c3nnn[nH]3)c2)c1C [8b]
IC50 (recombinant KPC-2 [1]): > 1000 µM
inhibition at 1000 µM (recombinant KPC-2 [1]; [3]): 37%

O=C(Nc1cccc(-c2nn[nH]n2)c1)c1cccs1 [10a]
IC50 (recombinant KPC-2 [2]; [5]): 70 µM

COCc1nc2cc(NS(C)(=O)=O)ccc2o1 [21a]
IC50 (recombinant KPC-2 [2]; [4]): > 1000 µM
inhibition at 1000 µM (recombinant KPC-2 [2]; [3]): 12%

O=C(NCc1nnnn1-c1ccccc1)c1cccnc1O [25a]
IC50 (recombinant KPC-2 [2]; [4]): > 400 µM
inhibition at 400 µM (recombinant KPC-2 [2]; [3]): 26%

O=C(O)Cc1c[nH]c2ncnn2c1=O [30a]
inhibition at 1000 µM (recombinant KPC-2 [2]; [3]): < 10%

COc1ccc2nc(N)sc2c1 [32a]
fold less active than 9a (recombinant KPC-2 [2]): 8 fold
fold reduction of meropenem MIC in combination with compound (Kpn 53A8): two

O=C(NC1CC1)c1ccc(-c2nnn[nH]2)cc1 [18a]
IC50 (recombinant KPC-2 [2]; [4]): > 1000 µM
inhibition at 1000 µM (recombinant KPC-2 [2]; [3]): 18%

CCS(=O)(=O)Nc1cc(-c2ccncc2)n[nH]1 [22a]
inhibition at 1000 µM (recombinant KPC-2 [2]; [3]): < 10%

O=c1c2ccc(S(=O)(=O)Nc3cccc(-c4nnn[nH]4)c3)cc2nc2n1CCCCC2 [12b]
inhibition at 500 µM (recombinant KPC-2 [1]; [3]): < 10%

O=S(=O)(Nc1cccc(-c2nnn[nH]2)c1)c1ccc(S(=O)(=O)N2CCCC2)cc1 [10b]
inhibition at 500 µM (recombinant KPC-2 [1]; [3]): < 10%

O=C(Nc1cccc(-c2nnn[nH]2)c1)c1cccc(F)c1 [11a, N-(3-(1H-tetrazol-5-yl)phenyl)-3-fluorobenzamide]
IC50 (recombinant KPC-2 [2]; [5]): 36 µM
Ki (recombinant KPC-2 [2]; Cheng-Prusoff equation from IC50, assuming competitive inhibition, read-out: Ki (calculated)): 14.8 µM
ligand efficiency (LE) (recombinant KPC-2 [2]; vs KPC-2): 0.28 kcal/mol/non-hydrogen atom
mode of inhibition (recombinant KPC-2 [2]; vs KPC-2): competitive inhibitors
fold reduction of meropenem MIC in combination with compound (Kpn 53A8): 4 fold

Cc1c(Br)cc(S(=O)(=O)Nc2cccc(-c3nnn[nH]3)c2)cc1[N+](=O)[O-] [9b]
inhibition at 500 µM (recombinant KPC-2 [1]; [3]): < 10%

COc1ccc(NS(C)(=O)=O)cc1 [5a]
IC50 (recombinant KPC-2 [2]; [4]): > 500 µM
inhibition at 500 µM (recombinant KPC-2 [2]; [3]): 13%

CCOc1cc(C(=O)O)nc2ccc(OC)cc12 [20a]
IC50 (recombinant KPC-2 [2]; [5]): > 500 µM
inhibition at 500 µM (recombinant KPC-2 [2]; [3]): 28%

COc1ccc(-c2cn[nH]c2C(=O)O)c(OC)c1 [2a]
IC50 (recombinant KPC-2 [2]; [4]): > 500 µM
inhibition at 500 µM (recombinant KPC-2 [2]; [3]): 38%

Cc1nc2cc(S(=O)(=O)Nc3cccc(-c4nnn[nH]4)c3)ccc2n1-c1ccccc1 [11b]
IC50 (recombinant KPC-2 [1]): > 1000 µM
inhibition at 1000 µM (recombinant KPC-2 [1]; [3]): 37%

COc1ccc2[nH]nc(C(=O)O)c2c1 [1a]
IC50 (recombinant KPC-2 [2]; [4]): > 330 µM
inhibition at 330 µM (recombinant KPC-2 [2]; [3]): 30%

CS(=O)(=O)Nc1ccc2oc(=O)sc2c1 [31a]
IC50 (recombinant KPC-2 [2]; [4]): > 1000 µM
inhibition at 1000 µM (recombinant KPC-2 [2]; [3]): 11%

Brc1cc2c(cc1-c1nnn[nH]1)OCO2 [12a]
IC50 (recombinant KPC-2 [2]; [5]): 700 µM

Cn1nccc1-c1cc(C(=O)O)n[nH]1 [27a]
inhibition at 500 µM (recombinant KPC-2 [2]; [3]): < 10%

NS(=O)(=O)c1ccc(Cl)c(S(=O)(=O)Nc2cccc(-c3nnn[nH]3)c2)c1 [13b]
inhibition at 500 µM (recombinant KPC-2 [1]; [3]): < 10%

NC(=O)c1ccc(-c2nnn[nH]2)cc1 [13a]
inhibition at 250 µM (recombinant KPC-2 [2]; [3]): < 10%

Cn1c(=O)c2n[nH]c(=O)nc2n(C)c1=O [14a]
IC50 (recombinant KPC-2 [2]): > 1000 µM
inhibition at 1000 µM (recombinant KPC-2 [2]; [3]): 26%

COc1cc(OC)c2cc(C(=O)O)nnc2c1 [28a]
IC50 (recombinant KPC-2 [2]; [4]): > 500 µM
inhibition at 500 µM (recombinant KPC-2 [2]; [3]): 14%

Cn1cc(-c2cc(C(=O)O)no2)cn1 [4a]
IC50 (recombinant KPC-2 [2]; [4]): > 250 µM
inhibition at 250 µM (recombinant KPC-2 [2]; [3]): 12%

O=S(=O)(Nc1cccc(-c2nnn[nH]2)c1)c1ccc(C(F)(F)F)cc1 [14b]
IC50 (recombinant KPC-2 [1]): > 500 µM

Cc1n[nH]c(C)c1/C=C/c1cc(C(=O)O)ncn1 [24a]
IC50 (recombinant KPC-2 [2]; [4]): > 100 µM
inhibition at 100 µM (recombinant KPC-2 [2]; [3]): 41%

Cc1c(-c2cc(C(=O)O)no2)cnn1C [3a]
IC50 (recombinant KPC-2 [2]; [4]): > 250 µM
inhibition at 250 µM (recombinant KPC-2 [2]; [3]): 13%

Cc1nn(CC(=O)O)c2nccc(-c3cnn(C)c3)c12 [26a]
IC50 (recombinant KPC-2 [2]; [4]): > 830 µM
inhibition at 830 µM (recombinant KPC-2 [2]; [3]): 18%

CS(=O)(=O)Nc1ccc(C(N)=O)cc1 [6a]
IC50 (recombinant KPC-2 [2]; [4]): > 1000 µM
inhibition at 1000 µM (recombinant KPC-2 [2]; [3]): 18%

Cc1nn(CC(=O)O)c2[nH]c(=O)cc(C(F)F)c12 [16a]
IC50 (recombinant KPC-2 [2]; [4]): > 1000 µM
inhibition at 1000 µM (recombinant KPC-2 [2]; [3]): 17%

CN(Cc1cnccn1)Cc1cccc(C(=O)O)n1 [23a]
IC50 (recombinant KPC-2 [2]; [5]): > 1000 µM
inhibition at 1000 µM (recombinant KPC-2 [2]; [3]): 26%

CC(=O)Nc1cccc(-c2nnn[nH]2)c1 [8a]
IC50 (recombinant KPC-2 [2]; [4]): > 500 µM
inhibition at 500 µM (recombinant KPC-2 [2]; [3]): 37%

O=c1ccc(O)nn1-c1nnn[nH]1 [17a]
IC50 (recombinant KPC-2 [2]; [4]): > 1000 µM
inhibition at 1000 µM (recombinant KPC-2 [2]; [3]): 23%
